Results: the NIST ThermoML archive (doi:10.1021/je900182h)
Values joined by “and” are separate entries in the source; they are usually repeats but may differ in a detail not shown here. Equal entries are not always repeated.

Settings: Crystal

[Br][Ga]([Br])[Br] [gallium bromide]
Settings | vapor or sublimation pressure
300 K | 7.08e-05 kPa
302.5 K | 6.31e-05 kPa and 9.55e-05 kPa
303 K | 4.79e-05 kPa
304 K | 7.24e-05 kPa
304.5 K | 8.51e-05 kPa
305 K | 7.24e-05 kPa
306.5 K | 9.77e-05 kPa
307 K | 0.000141 kPa and 9.77e-05 kPa
307.5 K | 0.000126 kPa and 9.55e-05 kPa
308 K | 0.000126 kPa
309.5 K | 0.000145 kPa
310 K | 0.00017 kPa and 0.000123 kPa
310.5 K | 0.000141 kPa
311 K | 0.00024 kPa
311.7 K | 0.000263 kPa
312 K | 0.000214 kPa
312.5 K | 0.00017 kPa
313 K | 0.000257 kPa [middle of 4 runs]
313.5 K | 0.000219 kPa
314 K | 0.00038 kPa
314.5 K | 0.000339 kPa and 0.000219 kPa
315 K | 0.000339 kPa [middle of 4 runs]
315.5 K | 0.000263 kPa
316 K | 0.00038 kPa and 0.000245 kPa
316.5 K | 0.000288 kPa
317 K | 0.000331 kPa and 0.000295 kPa
317.5 K | 0.000525 kPa and 0.000339 kPa
318 K | 0.00055 kPa
318.5 K | 0.000513 kPa and 0.000339 kPa
319.5 K | 0.000589 kPa [middle of 4 runs]
320 K | 0.000617 kPa and 0.000363 kPa
321 K | 0.000851 kPa and 0.000759 kPa
321.5 K | 0.000575 kPa
322 K | 0.000759 kPa and 0.000912 kPa and 0.000525 kPa
322.5 K | 0.000891 kPa and 0.000589 kPa
323 K | 0.0011 kPa and 0.000977 kPa and 0.000661 kPa
323.5 K | 0.000724 kPa
324 K | 0.0011 kPa [middle of 4 runs]
324.5 K | 0.000708 kPa
325 K | 0.00141 kPa and 0.000724 kPa
325.5 K | 0.000813 kPa
326 K | 0.00141 kPa and 0.000832 kPa
326.5 K | 0.000955 kPa and 0.000832 kPa
327 K | 0.00117 kPa and 0.000977 kPa
327.5 K | 0.00151 kPa [middle of 4 runs]
328 K | 0.00191 kPa and 0.00105 kPa
328.5 K | 0.00178 kPa and 0.000977 kPa
329.5 K | 0.00148 kPa and 0.00123 kPa
330 K | 0.00251 kPa and 0.00141 kPa and 0.00158 kPa
331 K | 0.00263 kPa and 0.00257 kPa
331.5 K | 0.00204 kPa
332 K | 0.00324 kPa and 0.00191 kPa
332.5 K | 0.00174 kPa
333 K | 0.00214 kPa [middle of 4 runs]
333.5 K | 0.00331 kPa and 0.00204 kPa
334 K | 0.00398 kPa and 0.00234 kPa
335 K | 0.00437 kPa and 0.00417 kPa and 0.00191 kPa
335.5 K | 0.00263 kPa
336 K | 0.00324 kPa [middle of 4 runs]
337 K | 0.00339 kPa
338 K | 0.0055 kPa and 0.00363 kPa and 0.00309 kPa
339.5 K | 0.00525 kPa
340 K | 0.00407 kPa and 0.00427 kPa and 0.00437 kPa
340.5 K | 0.00437 kPa
341 K | 0.00759 kPa and 0.00427 kPa
342 K | 0.00501 kPa
343 K | 0.00759 kPa and 0.00589 kPa
343.5 K | 0.00603 kPa
344 K | 0.00617 kPa
344.5 K | 0.00708 kPa
345 K | 0.00661 kPa and 0.00676 kPa
346 K | 0.00794 kPa [middle of 4 runs]
346.5 K | 0.00871 kPa
347 K | 0.0135 kPa
348 K | 0.00871 kPa and 0.00955 kPa
349 K | 0.01 kPa and 0.012 kPa and 0.0105 kPa
350.5 K | 0.0115 kPa
351 K | 0.0186 kPa and 0.0117 kPa
352 K | 0.0145 kPa
354.5 K | 0.0174 kPa
357 K | 0.0195 kPa
